The results in this text go back to ChEMBL document CHEMBL1201862, “PubChem BioAssay data set” (2004).

Structures are written as SMILES.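 Cultured in 96-well plates, cells were exposed to test compound for 48 hours across five concentrations. GI50 marks 50% less growth.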 The source made the active and inactive calls. Cut-off read from the data, not from the text of the source: active = GI50 up to about 1.1 µM and inactive = higher.

Among the test systems are OVCAR-5; IGROV-1; MOLT-4; NCI-H23; HCT-15; RPMI-8226; NCI-H522; SK-OV-3; HOP-92; OVCAR-8; NCI-H460; U-251; A549; TK-10; HCC 2998.
Assay in all cases: DTP human tumour cell line panel, 48 h

One may read the GI50 as the concentration that inhibits growth by half. `CCN(CC)c1ccc(C(=O)c2ccccc2C(=O)O)c(O)c1`: the GI50 in the experiment on OVCAR-5 was > 100 µM (inactive); in the experiment on IGROV-1, > 100 µM (inactive); in the experiment with MOLT-4 it was > 100 µM (inactive); in the experiment on NCI-H23 it was > 100 µM (inactive); in the experiment with HCT-15, > 100 µM; in the experiment on RPMI-8226 it was > 100 µM (inactive). Further, the GI50 with NCI-H522 was 42.9 µM (inactive); in the experiment with SK-OV-3, > 100 µM (inactive); with HOP-92, > 100 µM (inactive); in the experiment on OVCAR-8, > 100 µM (inactive); in the experiment on NCI-H460, > 100 µM (inactive); in the experiment with U-251, > 100 µM (inactive). Also, the GI50 in the experiment on A549 and in the experiment on TK-10 was > 100 µM (inactive) throughout.

On to `N#C/C(=C\c1ccccc1)C(NO)Nc1ccccc1` (stereo unspecified), for which the GI50 in the experiment with OVCAR-5 was > 100 µM (inactive); in the experiment on IGROV-1, 57.3 µM (inactive); in the experiment on MOLT-4, 31.9 µM (inactive); with NCI-H23, > 100 µM (inactive); in the experiment with HCT-15 it was 79.8 µM; with RPMI-8226, 58.1 µM (inactive). Also, the GI50 is 35.3 µM (inactive) in the experiment on NCI-H522; > 100 µM (inactive) in the experiment with SK-OV-3; 57.3 µM (inactive) in the experiment with HOP-92; 66.1 µM (inactive) with OVCAR-8; > 100 µM (inactive) with NCI-H460; 30.3 µM (inactive) in the experiment with U-251. Moreover, the GI50 with A549, in the experiment with HCC 2998 and in the experiment with TK-10 was > 100 µM (inactive) each time.

In the case of `O=C(Nc1ccc(Cl)c(Cl)c1)C(=O)C(C(=O)c1ccccc1-c1ccccc1)C1OC(=O)c2ccccc21` (stereo unspecified), the GI50 was 18.5 µM (inactive) with OVCAR-5; 24.2 µM (inactive) in the experiment with IGROV-1; 14 µM (inactive) in the experiment with MOLT-4; 10.6 µM (inactive) with NCI-H23; 8.24 µM (inactive) in the experiment with RPMI-8226; 6.56 µM (inactive) with NCI-H522. Further, the GI50 with SK-OV-3 is 28.5 µM (inactive); in the experiment with HOP-92, 12.9 µM (inactive); in the experiment with OVCAR-8, 17.4 µM (inactive); in the experiment on NCI-H460 it was 19.9 µM (inactive); in the experiment with U-251, 9.1 µM (inactive); in the experiment with A549, 21.3 µM (inactive). Besides, the figures for the GI50 in the experiment with HCC 2998 and in the experiment with TK-10 were 14.5 µM (inactive) and 23.6 µM (inactive), respectively.

With `Cc1cc2c(c3c1c1ccccc1n3C)C(=O)c1ccccc1C2=O`, the GI50 in the experiment with OVCAR-5 is > 100 µM (inactive); in the experiment on IGROV-1, 45.7 µM (inactive); in the experiment on MOLT-4, 53.6 µM (inactive); in the experiment on NCI-H23 it was 48.5 µM (inactive); in the experiment with HCT-15, > 100 µM; in the experiment on RPMI-8226 it was > 100 µM (inactive). Besides, the GI50 is 75.3 µM (inactive) in the experiment on NCI-H522; 16.9 µM (inactive) with HOP-92; > 100 µM (inactive) in the experiment with OVCAR-8; > 100 µM (inactive) in the experiment on NCI-H460; > 100 µM (inactive) with U-251; > 100 µM (inactive) with A549. Moreover, the GI50 in the experiment on HCC 2998 and in the experiment with TK-10 was > 100 µM (inactive) throughout.

Regarding `CC1=NN(C(=O)c2ccc(Cl)cc2)C(=O)/C1=C/c1ccco1`, the GI50 in the experiment with OVCAR-5 is > 100 µM (inactive); in the experiment on IGROV-1, > 100 µM (inactive); with MOLT-4, > 100 µM (inactive); in the experiment on NCI-H23 it was > 100 µM (inactive); in the experiment with HCT-15 it was > 100 µM; in the experiment on RPMI-8226, > 100 µM (inactive). Moreover, the GI50 in the experiment on NCI-H522, in the experiment with SK-OV-3, in the experiment on HOP-92, in the experiment on OVCAR-8, in the experiment on NCI-H460 and with U-251 was > 100 µM (inactive) in each case. The GI50 in the experiment on A549, in the experiment on HCC 2998 and in the experiment on TK-10 was > 100 µM (inactive) in each case.

`COc1ccc(C2CCC(Cl)(OC)CC2C=O)cc1` (stereo unspecified): the GI50 is > 100 µM (inactive) in the experiment with OVCAR-5; > 100 µM (inactive) with IGROV-1; 47.5 µM (inactive) in the experiment on MOLT-4; 34.6 µM (inactive) with NCI-H23; 49.4 µM in the experiment on HCT-15; 45.7 µM (inactive) in the experiment on RPMI-8226. The GI50 in the experiment on NCI-H522 is 64.7 µM (inactive); in the experiment on SK-OV-3, > 100 µM (inactive); with HOP-92, 29.9 µM (inactive); in the experiment with OVCAR-8 it was 85.1 µM (inactive); in the experiment with NCI-H460, > 100 µM (inactive); with U-251, 43.9 µM (inactive). Further, the figures for the GI50 in the experiment with A549, with HCC 2998 and in the experiment on TK-10 were 61.5 µM (inactive), > 100 µM (inactive) and > 100 µM (inactive), respectively.

Turning to `Cc1ccc(NC(=O)C2C(=O)C(=O)N(c3ccc(C)cc3)C2=O)cc1` (stereo unspecified), the GI50 in the experiment with OVCAR-5 is > 100 µM (inactive); in the experiment on IGROV-1 it was > 100 µM (inactive); with MOLT-4 it was > 100 µM (inactive); in the experiment with NCI-H23 it was > 100 µM (inactive); in the experiment on HCT-15, > 100 µM; in the experiment on NCI-H522, > 100 µM (inactive). Further, the GI50 in the experiment on HOP-92 was > 100 µM (inactive); in the experiment on OVCAR-8 it was > 100 µM (inactive); with NCI-H460, > 100 µM (inactive); with U-251 it was 99.3 µM (inactive); in the experiment on A549 it was > 100 µM (inactive); in the experiment on HCC 2998, > 100 µM (inactive). Further, in the experiment on TK-10, the GI50 is > 100 µM (inactive).

On to `CC(C)(C)N/N=N/c1cn(C2OC(CO)C(O)C2O)c(=O)[nH]c1=O` (stereo unspecified), for which the GI50 in the experiment on OVCAR-5 is > 100 µM (inactive); in the experiment on IGROV-1, > 100 µM (inactive); with MOLT-4 it was > 100 µM (inactive); with NCI-H23, > 100 µM (inactive); with HCT-15, 43.5 µM; in the experiment with RPMI-8226, 20 µM (inactive). The GI50 in the experiment on NCI-H522 was > 100 µM (inactive); in the experiment on SK-OV-3 it was > 100 µM (inactive); in the experiment with HOP-92 it was > 100 µM (inactive); in the experiment on OVCAR-8, > 100 µM (inactive); in the experiment on NCI-H460, 64.9 µM (inactive); in the experiment on A549, > 100 µM (inactive). Further, the GI50 in the experiment with HCC 2998 and in the experiment with TK-10 was > 100 µM (inactive) each time.

Turning to `CCCCCCCCCCCCCS(=O)(=O)O`, the GI50 in the experiment on OVCAR-5 was > 100 µM (inactive); with IGROV-1, > 100 µM (inactive); in the experiment on NCI-H23, > 100 µM (inactive); in the experiment on HCT-15 it was > 100 µM; in the experiment on NCI-H522 it was > 100 µM (inactive); in the experiment with HOP-92, > 100 µM (inactive). Further, the GI50 with OVCAR-8, in the experiment on NCI-H460, in the experiment with U-251, in the experiment with A549, in the experiment with HCC 2998 and in the experiment on TK-10 was > 100 µM (inactive) each time.

In the case of `O=C1C=CC(=CC=C2C=CN(CCCCCCCCCCC(=O)NCCCCCCCCCCCC(=O)O)C=C2)C=C1`, the GI50 in the experiment with OVCAR-5 was > 100 µM (inactive); in the experiment with IGROV-1, > 100 µM (inactive); in the experiment with MOLT-4, > 100 µM (inactive); in the experiment with NCI-H23 it was > 100 µM (inactive); in the experiment with HCT-15, > 100 µM; with RPMI-8226 it was > 100 µM (inactive). Moreover, the GI50 in the experiment on NCI-H522, with SK-OV-3, in the experiment with HOP-92, in the experiment on OVCAR-8, with NCI-H460 and in the experiment on U-251 was > 100 µM (inactive) in each case. Besides, the GI50 in the experiment on A549, in the experiment with HCC 2998 and with TK-10 was > 100 µM (inactive) in each case.
